Measured values reported in US10316017B2, “COT modulators and methods of use thereof” (Gilead Sciences, Inc., priority 2015, dated 2019).

Assays:
[1] = test system: TNFα production in LPS-stimulated human monocytes; assay: Cot Monocyte TNFα Cell Based Assay; details: Homo sapiens, Monocyte, TNFα in LPS-stimulated human monocytes; read-out: EC50 TNF
Description: Example 60: Cot Monocyte TNFα Cell Based Assay
The cell suspension was then plated at a density of 5,000 cells/well onto black 384 well Greiner clear bottom plates. Plates were pre-spotted with test compounds and serially diluted in DMSO where 200 nL/well were delivered using the Echo 550 acoustic liquid dispenser (Labcyte®) for a final DMSO concentration of 0.5%. Plated cells were treated with compound for 1 hour at 37° C. Cells were then stimulated with 50 pg/ml of LPS (Sigma) excluding outside columns of plate used for unstimulated cell control wells. Cells were incubated for an additional 4 hours at 37° C. Cells were then spun out of the media and 5 ul of sample were taken and analyzed for total TNFα content using the TR-FRET Human TNFα detection system (CisBio). This system utilizes two labeled antibodies (cryptate and XL665) that bind to two different epitopes of the TNFα molecule and produce FRET signal proportional to the concentration of TNFα in the sample. Detection antibodies are mixed 50:50 and 5 μL were dispensed into each well. Plates were covered with clear seals and incubated at room temp overnight. […] Percent of control was calculated as follows: % Control=100×(RatioSample−Ratio0% stimulation)/(Ratio100% Stimulation−Ratio0% Stimulation) where unstimulated cells (0% stimulation) were the negative control and stimulated cells (100% stimulation) were used as the positive control.

[2] = biological target: T1, human Cot catalytic domain (30-397 amino acids) (Homo sapiens, UniProt P41279); assay: High Throughput Cot Biochemical Assay (KinEASE TR-FRET); details: Cot KinEASE TR-FRET (HTRF) biochemical assay, 400 μM ATP; read-out: IC50 HTRF
T1 construct: Purified recombinant human Cot catalytic domain (30-397 amino acids) was purchased from Cama Biosciences; purchased Cama Biosciences (so in the source)
T1 sequence (P41279 30-397): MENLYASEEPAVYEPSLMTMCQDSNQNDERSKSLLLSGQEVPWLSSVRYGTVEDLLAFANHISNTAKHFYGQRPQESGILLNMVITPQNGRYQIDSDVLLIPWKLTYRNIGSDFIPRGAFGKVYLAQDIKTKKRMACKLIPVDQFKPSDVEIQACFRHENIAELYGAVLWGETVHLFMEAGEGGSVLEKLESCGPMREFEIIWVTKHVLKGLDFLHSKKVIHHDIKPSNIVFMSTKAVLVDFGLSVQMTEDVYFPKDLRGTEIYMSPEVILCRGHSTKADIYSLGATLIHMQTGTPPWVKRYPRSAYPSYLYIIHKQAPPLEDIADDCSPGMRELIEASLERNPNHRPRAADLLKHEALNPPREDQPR
In short: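 Phosphorylation of 1 μM XL665-STK3 peptide by 5 nM Cot catalytic domain was measured by time-resolved FRET using a europium […] antibody. ATP was 400 μM; buffer was 10 mM MOPS pH 7.0 with Mg2+ and DTT.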

Row | SMILES | EC50 [1] [nM] | IC50 [2] [nM]
1 | CCN1CCC(n2cnc(C(Nc3cc(Cl)c4ncc(C#N)c(Nc5ccc(F)c(Cl)c5)c4c3)c3ccccc3)c2)CC1 (centres unmarked) [Compound 27, 8-chloro-4-((3-chloro-4-fluorophenyl)amino)-6-(((1-(1-ethylpiperidin-4-yl)-1H-imidazol-4-yl)(phenyl)methyl)amino) quinoline-3-carbonitrile] | 232 | 11
2 | [2H][C@](Nc1cc(-c2ccccn2)c2ncc(C#N)c(NCC(C)(C)C)c2c1)(c1ccc(F)cc1)c1cn(C2CC2)nn1 [Compound 28] | > 1000 | 2000
3 | [2H][C@](Nc1cc(C(C)O)c2ncc(C#N)c(NCC(C)(C)C)c2c1)(c1ccc(F)cc1)c1cn(C2CC2)nn1 (some centres unmarked) [Compound 29] | > 1000 | 217
4 | [2H][C@](Nc1cc(C#C)c2ncc(C#N)c(N[C@H](CC)c3ccccc3)c2c1)(c1ccc(F)cc1)c1cn(C2CC2)nn1 [Compound 30] | > 10000 | 7210
5 | N#Cc1cnc2c(Cl)cc(N[C@@H](c3ccc(F)cc3)c3cn(C4CC4)nn3)cc2c1N[C@H](CCF)c1ccccc1 [Compound 32] | 78 | 5
6 | [2H]C(Nc1cc(Cl)c2ncc(C#N)c(NC(=O)C(C)(C)C)c2c1)(c1ccc(F)cc1)c1cn(C2CC2)nn1 (centres unmarked) [Compound 33] | > 10000 | 1620
7 | [2H]C(Nc1cc(Cl)c2ncc(C#N)c(N[C@H](CCN3CCOCC3)c3ccccc3)c2c1)(c1ccc(F)cc1)c1cn(C2CC2)nn1 (some centres unmarked) [Compound 34] | 192 | 13
8 | COCCN1CCC(n2cc([C@@H](Nc3cc(Cl)c4ncc(C#N)c(Nc5ccc(F)c(Cl)c5)c4c3)c3ccc(F)cc3)nn2)CC1 [Compound 35] | 229 | 15
9 | [2H]C(Nc1cc(Cl)c2ncc(C#N)c(N[C@H](CC)c3ccccc3)c2c1F)(c1cccc(C#N)c1)c1cn(C2CC2)nn1 (some centres unmarked) [Compound 36] | > 10000 | > 10000
10 | [2H][C@](Nc1cc(Cl)c2ncc(C#N)c(N[C@H](CC)c3ccccc3)c2c1)(c1cccc(C#N)c1)c1cnnn1C1CC1 [Compound 37] | > 1000 | 810
11 | CCN1CCC(n2cc([C@@H](Nc3cc(Cl)c4ncc(C#N)c(Nc5ccc(F)c(Cl)c5)c4c3)c3cccc(C(=O)N(C)C)c3)nn2)CC1 [Compound 41] | 74 | 1
12 | CC(C)(C)N1CCC(n2cc([C@@H](Nc3cc(Cl)c4ncc(C#N)c(Nc5ccc(F)c(Cl)c5)c4c3)c3cccc(C=O)c3)nn2)CC1 [Compound 42] | 138 | 5
13 | [2H][C@](Nc1cc(O)c2ncc(C#N)c(NCC(C)(C)C)c2c1)(c1ccc(F)cc1)c1cn(C2CC2)nn1 [Compound 43] | > 10000 | 1940
14 | [2H][C@](Nc1cc(Cl)c2ncc(C#N)c(Nc3cnc(F)c(F)c3)c2c1)(c1ccc(F)cc1)c1cn(CF)nn1 [Compound 44] | 902 | 53
15 | Cn1cc([C@@H](Nc2cc(Cl)c3ncc(C#N)c(Nc4cnc(F)c(F)c4)c3c2)c2ccccc2F)nn1 [Compound 45] | 877 | 10
16 | CC(C)(C)CNc1c(C#N)cnc2c(C#N)cc(N[C@@H](c3cccc(C(=O)N4CC(F)C4)c3)c3cn(C4CC4)nn3)cc12 [Compound 58] | 269 | 3
17 | CC(C)(C)CNc1c(C#N)cnc2c(C#N)cc(N[C@@H](c3cccc(C(N)=O)c3)c3cn(C4CC4)nn3)cc12 [Compound 59] | 612 | 1
18 | CC(C)(C)CNc1c(C#N)cnc2c(Br)cc(N[C@@H](c3cccc(C(=O)O)c3)c3cn(C4CC4)nn3)cc12 [Compound 60] | > 1000 | 17
19 | [2H][C@](Nc1cc(Cl)c2ncc(C#N)c(N[C@H](CC)c3ccccc3)c2c1)(c1cccc(C#N)c1)c1cn(CC=C)nn1 [Compound 61] | 75 | 3

Now from value to compound:

Row | EC50 [1] [nM] | IC50 [2] [nM] | SMILES
20 | 447 | 29 | [2H][C@](Nc1cc(-c2cnc(C)nc2)c2ncc(C#N)c(NCC(C)(C)C)c2c1)(c1ccc(F)cc1)c1cn(C2CC2)nn1 [Compound 62]
21 | 330 | 26 | CC[C@@H](Nc1c(C#N)cnc2c(Cl)cc(N[C@H](c3cn(C4(C#N)CC4)nn3)c3ccccc3Cl)cc12)c1ccccc1 [Example 49, 8-chloro-6-(((S)-(2-chlorophenyl)(1-(1-cyanocyclopropyl)-1H-1,2,3-triazol-4-yl)methyl)amino)-4-(((R)-1-phenylpropyl)amino) quinoline-3-carbonitrile]
22 | 57 | 1 | [2H][C@](Nc1cc(Cl)c2ncc(C#N)c(N[C@H](CCC#N)c3ccccc3)c2c1)(c1cccc(C#N)c1)c1cn(C(F)(F)CO)nn1 [Example 51, 8-chloro-4-(((R)-3-cyano-1-phenylpropyl)amino)-6-(((S)-(3-cyanophenyl) (1-(1,1-difluoro-2-hydroxyethyl)-1H-1,2,3-triazol-4-yl)methyl-d)amino) quinoline-3-carbonitrile]
23 | > 1000 | 4 | CC(C)(C)CNc1c(C#N)cnc2c(Br)cc(N[C@@H](c3cccc(C(=O)N4CC(O)C4)c3)c3cn(C4CC4)nn3)cc12 [Example 52, (S)-8-bromo-6-(((1-cyclopropyl-1H-1,2,3-triazol-4-yl) (3-(3-hydroxyazetidine-1-carbonyl)phenyl)methyl)amino)-4-(neopentylamino) quinoline-3-carbonitrile]
24 | 163 | 5 | CC(C)(C)CNc1c(C#N)cnc2c(Br)cc(N[C@@H](c3cccc(C(=O)N4CC(F)C4)c3)c3cn(C4CC4)nn3)cc12 [Example 53, (S)-8-bromo-6-(((1-cyclopropyl-1H-1,2,3-triazol-4-yl)(3-(3-fluoroazetidine-1-carbonyl)phenyl)methyl)amino)-4-(neopentylamino) quinoline-3-carbonitrile]
25 | 267 | 2 | CC(C)(C)CNc1c(C#N)cnc2c(Br)cc(N[C@@H](c3cccc(C(N)=O)c3)c3cn(C4CC4)nn3)cc12 [Example 54, (S)-3-(((8-bromo-3-cyano-4-(neopentylamino)quinolin-6-yl)amino) (1-cyclopropyl-1H-1,2,3-triazol-4-yl)methyl)benzamide]
26 | 414 | 2 | CNC(=O)c1cccc([C@H](Nc2cc(C#N)c3ncc(C#N)c(NCC(C)(C)C)c3c2)c2cn(C3CC3)nn2)c1 [Example 55, (S)-3-((1-cyclopropyl-1H-1,2,3-triazol-4-yl) ((3,8-dicyano-4-(neopentylamino)quinolin-6-yl)amino)methyl)-N-methylbenzamide]
27 | 184 | 3 | CC(C)(C)CNc1c(C#N)cnc2c(C#N)cc(N[C@@H](c3cccc(C(=O)N4CC(F)(F)C4)c3)c3cn(C4CC4)nn3)cc12 [Example 56, (S)-6-(((1-cyclopropyl-1H-1,2,3-triazol-4-yl)(3-(3,3-difluoroazetidine-1-carbonyl)phenyl)methyl)amino)-4-(neopentylamino) quinoline-3,8-dicarbonitrile]
28 | > 1000 | 3 | CC(C)(C)CNc1c(C#N)cnc2c(C#N)cc(N[C@@H](c3cccc(C(=O)N4CC(O)C4)c3)c3cn(C4CC4)nn3)cc12 [Example 57, (S)-6-(((1-cyclopropyl-1H-1,2,3-triazol-4-yl) (3-(3-hydroxyazetidine-1-carbonyl)phenyl)methyl)amino)-4-(neopentylamino) quinoline-3,8-dicarbonitrile]
29 | > 1000 | 213 | [2H][C@](Nc1cc(-c2cnco2)c2ncc(C#N)c(NCC(C)(C)C)c2c1)(c1ccc(F)cc1)c1cn(C2CC2)nn1 [Example 63, (S)-6-(((1-cyclopropyl-1H-1,2,3-triazol-4-yl)(4-fluorophenyl)methyl-d)amino)-4-(neopentylamino)-8-(oxazol-5-yl)quinoline-3-carbonitrile]
30 | > 1000 | 106 | [2H][C@](Nc1cc(Cl)c2ncc(C#N)c(NC3CCOC(C)(C)C3)c2c1)(c1ccc(F)cc1)c1cn(C2CC2)nn1 (stereo partly drawn) [Example 64, 8-chloro-6-(((S)-(1-cyclopropyl-1H-1,2,3-triazol-4-yl)(4-fluorophenyl)methyl-d)amino)-4-((2,2-dimethyltetrahydro-2H-pyran-4-yl)amino) quinoline-3-carbonitrile]
31 | 95 | 3 | N#CCC[C@@H](Nc1c(C#N)cnc2c(Cl)cc(N[C@H](c3cn(C4COC4)nn3)c3ccccc3Cl)cc12)c1ccccc1 [Example 65, 8-chloro-6-(((S)-(2-chlorophenyl)(1-(oxetan-3-yl)-1H-3-triazol-4-yl)methyl)amino)-4-(((R)-3-cyano-1-phenylpropyl)amino) quinoline-3-carbonitrile]
